Results published in the NIST ThermoML archive (doi:10.1016/j.jct.2010.06.008).

Experiment: xn = mol fraction of the nth substance listed
Conditions: 101 kPa, Liquid; for speed of sound: Sing-around technique in a fixed-path interferometer; for mass density: Vibrating tube method

CC(C)(C)Cl [2-chloro-2-methylpropane] + CCCCCCC
Conditions | mass density, 283.15 K [kg/m3] | mass density, 298.15 K [kg/m3] | mass density, 313.15 K [kg/m3] | speed of sound, 283.15 K [m/s] | speed of sound, 298.15 K [m/s] | speed of sound, 313.15 K [m/s]
x2 = 0 | 855.249 | 837.096 | 818.536 | 1046.9 | 983.25 | 919.41
x2 = 0.0519 | 843.365 | 825.671 | 807.559 | 1053 | 989.06 | 925.62
x2 = 0.1021 | 832.352 | 815.034 | 797.321 | 1059 | 995.16 | 931.82
x2 = 0.2015 | 811.803 | 795.208 | 778.248 | 1071.6 | 1007.9 | 944.63
x2 = 0.3006 | 792.846 | 776.886 | 760.618 | 1085.1 | 1021.5 | 957.98
x2 = 0.3997 | 775.339 | 759.908 | 744.157 | 1099.1 | 1035.7 | 972.04
x2 = 0.5027 | 758.514 | 743.587 | 728.394 | 1114.5 | 1051.1 | 987.29
x2 = 0.6011 | 743.606 | 729.156 | 714.479 | 1129.7 | 1066 | 1002.2
x2 = 0.7014 | 729.346 | 715.392 | 701.195 | 1145.5 | 1081.5 | 1017.8
x2 = 0.8007 | 716.295 | 702.832 | 689.124 | 1161.5 | 1097.1 | 1033.3
x2 = 0.8966 | 704.437 | 691.409 | 678.136 | 1177.4 | 1113.2 | 1049.5
x2 = 0.9518 | 697.935 | 685.122 | 672.064 | 1187 | 1122.5 | 1058.7

CC(C)CCl [1-chloro-2-methylpropane] + CCCCCCC
Conditions | mass density, 283.15 K [kg/m3] | mass density, 298.15 K [kg/m3] | mass density, 313.15 K [kg/m3] | speed of sound, 283.15 K [m/s] | speed of sound, 298.15 K [m/s] | speed of sound, 313.15 K [m/s]
x2 = 0 | 888.845 | 871.533 | 853.902 | 1141.7 | 1078.6 | 1016.3
x2 = 0.0507 | 874.748 | 857.771 | 840.47 | 1142.2 | 1079.1 | 1016.8
x2 = 0.0979 | 862.133 | 845.448 | 828.448 | 1143 | 1079.8 | 1017.4
x2 = 0.2004 | 836.427 | 820.343 | 803.95 | 1145.4 | 1082.2 | 1019.6
x2 = 0.3008 | 813.265 | 797.726 | 781.886 | 1149 | 1085.5 | 1022.9
x2 = 0.3993 | 792.269 | 777.224 | 761.888 | 1153.4 | 1089.8 | 1027
x2 = 0.4999 | 772.383 | 757.812 | 742.952 | 1158.6 | 1094.9 | 1032
x2 = 0.5973 | 754.5 | 740.349 | 725.924 | 1164.4 | 1100.6 | 1037.5
x2 = 0.6994 | 737.065 | 723.337 | 709.345 | 1171.2 | 1107.2 | 1044
x2 = 0.8006 | 720.978 | 707.64 | 694.051 | 1178.7 | 1114.2 | 1051.1
x2 = 0.9002 | 706.284 | 693.212 | 679.976 | 1187 | 1122.3 | 1058.9
x2 = 0.9491 | 699.353 | 686.54 | 673.496 | 1191 | 1126.4 | 1062.7
